Laboratory results as given in US12246076B2, “Radiolabeled compounds for in vivo imaging of gastrin-releasing peptide receptor (GRPR) and treatment of GRPR-related disorders” (PROVINCIAL HEALTH SERVICES AUTHORITY, priority 2022, dated 2025).

What was measured:
[1] = Ex vivo biodistribution in PC-3 tumor-bearing mice; settings: male, mouse, iv, total radioactivity, 1 h post-injection, n = 4; for tissue uptake at 1 h: mice bearing PC-3 tumor xenografts; for tissue to tissue ratio at 1 h: uptake ratio
Procedure: All imaging and biodistribution studies were performed using male NOD.Cg-Rag1^tm1MoM II2rg^tm1WI/SzJ (NRG) mice and conducted according to the guidelines established by the Canadian Council on Animal Care and approved by Animal Ethics Committee of the University of British Columbia. For tumor inoculations, mice were anesthetized by inhalation with 2% isoflurane in oxygen and implanted subcutaneously with 5×10^6 PC-3 cells below the left shoulder. Imaging and biodistribution studies were performed only after tumors grew to 5-8 mm in diameter.
For PET/CT imaging studies, ˜3-4 MBq of the ^68Ga-labeled tracer was injected through the tail vein. Mice were allowed to recover and roam freely in the cages after injecting the tracer. At 45 min post-injection (p.i.), mice were sedated again and positioned on the scanner. First, a 10 min CT scan was conducted for localization and attenuation correction for reconstruction of PET images, before a 10 min PET image was acquired. Heating pads were used during the entire procedure to keep the mice warm. For ex vivo biodistribution studies, mice were injected with ˜1.5-3 MBq of the ^68Ga-labeled tracer. At 1 h p.i., mice were euthanized, blood was drawn from heart, and organs/tissues of interest were collected, rinsed with PBS, blotted dry, weighed, and counted using an automated gamma counter. The uptake in each organ/tissue was normalized to the injected dose and expressed as the percentage of the injected dose per gram of tissue (% ID/g).
All imaging and biodistribution studies were performed using male NOD.Cg-Rag1tm1Mom II2rgtm1WjI/SzJ (NRG) mice and conducted according to the guidelines established by the Canadian Council on Animal Care and approved by Animal Ethics Committee of the University of British Columbia. For tumor inoculations, mice were anesthetized by inhalation with 2% isoflurane in oxygen and implanted subcutaneously with 5×10^6 PC-3 cells below the left shoulder. Imaging and biodistribution studies were performed only after tumors grew to 5-8 mm in diameter.
For PET/CT imaging studies, ˜5 MBq of the ^68Ga-labeled tracer was injected through the tail vein. Mice were allowed to recover and roam freely in the cages after injecting the tracer. At 45 min post-injection (p.i.), mice were sedated again and positioned on the scanner. First, a 10 min CT scan was conducted for localization and attenuation correction for reconstruction of PET images, before a 10 min PET image was acquired. Heating pads were used during the entire procedure to keep the mice warm. For ex vivo biodistribution studies, mice were injected with ˜3 MBq of the 68Ga-labeled tracer. At 1 h p.i., mice were euthanized, blood was drawn from heart, and organs/tissues of interest were collected, rinsed with PBS, blotted dry, weighed, and counted using an automated gamma counter.

[2] = In vivo plasma stability, radio-HPLC of plasma at 15 min p.i.; settings: healthy male NRG mice (n=3), 15 min post-injection
Procedure: In vivo plasma stability studies were conducted for ^68Ga-labeled tracers to evaluate metabolic stability at 15 min p.i. Approximately 5.56 to 15.3 MBq of ^68Ga-LW01025, ^68Ga-LW01029, ^68Ga-LW01107, ^68Ga-LW01108, ^68Ga-LW01110, ^68Ga-LW01102, or ^68Ga-LW01142 were injected via tail vein into three male NRG mice, respectively. At 15 min p.i., mice were sedated and euthanized and their blood and urine were collected. The plasma was extracted from whole blood with ACN, vortexed, centrifuged, and the supernatant collected. The plasma and urine were analyzed with radio-HPLC (C18 analytical column; flow rate: 2.0 mL/min). The HPLC condition was same as the HPLC condition for quality control.
The in vivo studies were similarly performed according to the procedure set forth in Example 1. […] The present invention has been described with regard to one or more embodiments.

[3] = target: T1, GRPR (Homo sapiens, UniProt P30550); settings: literature (Heimbrook 1991; Lin 1995); cited from earlier work
T1 construct: endogenous in cells; host or cells: PC-3 prostate cancer cells

[4] = NRG, PC-3 tumor, Biodistribution PC3 tumor Mean
[5] = NRG, adrenal, Biodistribution Adrenal Mean
[6] = NRG, bone, Biodistribution Bone Mean
[7] = NRG, brain, Biodistribution Brain Mean
[8] = NRG, fat, Biodistribution Fat Mean
[9] = NRG, heart, Biodistribution Heart Mean
[10] = NRG, kidneys, Biodistribution Kidneys Mean
[11] = NRG, large intestine, Biodistribution Large Intestine Mean
[12] = NRG, liver, Biodistribution Liver Mean
[13] = NRG, lungs, Biodistribution Lungs Mean
[14] = NRG, muscle, Biodistribution Muscle Mean
[15] = NRG, pancreas, Biodistribution Pancreas Mean
[16] = NRG, small intestine, Biodistribution Small Intestine Mean
[17] = NRG, spleen, Biodistribution Spleen Mean
[18] = NRG, stomach, Biodistribution Stomach Mean
[19] = NRG, testes, Biodistribution Testes Mean
[20] = NRG, whole blood, Biodistribution Blood Mean

T1 sequence (P30550 whole entry): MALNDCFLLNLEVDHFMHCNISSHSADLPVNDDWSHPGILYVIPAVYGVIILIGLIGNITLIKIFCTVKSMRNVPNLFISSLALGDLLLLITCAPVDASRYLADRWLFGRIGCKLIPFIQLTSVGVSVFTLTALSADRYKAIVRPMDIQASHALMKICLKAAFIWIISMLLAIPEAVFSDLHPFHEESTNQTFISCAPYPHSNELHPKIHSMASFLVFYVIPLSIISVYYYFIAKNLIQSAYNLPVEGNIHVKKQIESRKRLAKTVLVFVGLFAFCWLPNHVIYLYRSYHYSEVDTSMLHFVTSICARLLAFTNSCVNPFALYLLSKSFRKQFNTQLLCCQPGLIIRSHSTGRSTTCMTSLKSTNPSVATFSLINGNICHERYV

Compound | tissue uptake at 1 h [1, 4] | tissue uptake at 1 h [1, 5] | tissue uptake at 1 h [1, 6] | tissue uptake at 1 h [1, 7] | tissue uptake at 1 h [1, 8] | tissue uptake at 1 h [1, 9] | tissue uptake at 1 h [1, 10] | tissue uptake at 1 h [1, 11] | tissue uptake at 1 h [1, 12] | tissue uptake at 1 h [1, 13] | tissue uptake at 1 h [1, 14] | tissue uptake at 1 h [1, 15] | tissue uptake at 1 h [1, 16] | tissue uptake at 1 h [1, 17] | tissue uptake at 1 h [1, 18] | tissue uptake at 1 h [1, 19] | tissue uptake at 1 h [1, 20] | remaining intact in plasma [2] | also measured
CC(C)C[C@@H](CN1CSC[C@H]1C(N)=O)NC(=O)[C@H](Cc1c[nH]cn1)NC(=O)CNC(=O)[C@@H](NC(=O)[C@H](C)NC(=O)[C@H](Cc1c[nH]c2ccccc12)NC(=O)[C@H](CCC(N)=O)NC(=O)[C@@H](Cc1ccccc1)NC(=O)CN1CCC(NC(=O)CN2CCN(CC(=O)O)CCN(CC(=O)O)CCN(CC(=O)O)CC2)CC1)C(C)C [^68Ga-LW01045, metal not drawn] | 10.2 %ID/g | 0.57 %ID/g | 0.19 %ID/g | 0.05 %ID/g | 0.09 %ID/g | 0.27 %ID/g | 2.51 %ID/g | 0.37 %ID/g | 2.61 %ID/g | 0.75 %ID/g | 0.15 %ID/g | 2.81 %ID/g | 1.04 %ID/g | 0.47 %ID/g | 0.32 %ID/g | 0.19 %ID/g | 0.76 %ID/g | 83.3±1.45% | 
CC(C)C[C@@H](CN1CSC[C@H]1C(N)=O)NC(=O)[C@H](Cc1cnc[nH]1)NC(=O)CN(C)C(=O)[C@@H](NC(=O)[C@H](C)NC(=O)[C@H](Cc1c[nH]c2ccccc12)NC(=O)[C@H](CCC(N)=O)NC(=O)[C@@H](Cc1ccccc1)NC(=O)CN1CCC(NC(=O)CN2CCN(CC(=O)O)CCN(CC(=O)O)CCN(CC(=O)O)CC2)CC1)C(C)C [^68Ga-LW01090, metal not drawn] | 15.7 %ID/g | 0.58 %ID/g | 0.1 %ID/g | 0.03 %ID/g | 0.11 %ID/g | 0.24 %ID/g | 3.52 %ID/g | 0.41 %ID/g | 0.64 %ID/g | 0.55 %ID/g | 0.2 %ID/g | 1.98 %ID/g | 0.66 %ID/g | 0.3 %ID/g | 0.4 %ID/g | 0.23 %ID/g | 0.76 %ID/g | 67.1±4.76% | tissue to tissue ratio at 1 h ([1]; NOD.Cg-Rag1tm1Mom Il2rgtm1Wjl/SzJ (NRG), tumor and kidney, Tumor/kidney Mean): 4.48; tissue to tissue ratio at 1 h ([1]; NOD.Cg-Rag1tm1Mom Il2rgtm1Wjl/SzJ (NRG), tumor and pancreas, Tumor/pancreas Mean): 7.95; tissue to tissue ratio at 1 h ([1]; NRG, PC-3 tumor / bone, Tumor/bone Mean): 175; tissue to tissue ratio at 1 h ([1]; NRG, PC-3 tumor / muscle, Tumor/muscle Mean): 82.3
litorin |  |  |  |  |  |  |  |  |  |  |  |  |  |  |  |  |  |  | binding affinity to the GRPR [3]: very strong binding affinity
